The text below walks through data of PMC13159774, “Functional Characterization of the Cat and Dog Wild‐Type and Mutant MDR1 Carrier Proteins and Frequency of the MDR1 Gene Mutation in 800 Cats From Germany” (Journal of Veterinary Pharmacology and Therapeutics, 2025).

Several values for one entry are separate records, joined by “and”; a condition that tells them apart may be missing. Equal values may be shown once. Entries after “also recorded” stand apart in the source; their conditions may differ. Read-outs that look alike come from different tables or passages of the source.

The test system of data set [1] is wild-type MDR1 carriers of dog and cat. Nature of the data set: Rh123 efflux inhibition in MDR1-HEK293 cells, stated for both wild-type MDR1 carriers together. Particulars: analyzed inhibitor concentration range, highest 100 μM. As to the method: (§1) Transport inhibition experiments were performed with 5 μM Rh123 as the probe substrate in stably transfected MDR1‐HEK293 cells. Cells were seeded onto polylysine‐coated 96‐well plates and gene expression was induced with tetracycline treatment at 1 μg/mL. […] Subsequently, the PBS was replaced with 80 μL of transport buffer again containing the respective inhibitor or solvent alone, and cells were further incubated for 60 min at 37°C for the efflux phase.
(§2) All graphs and diagrams were generated with GraphPad Prism 6 (GraphPad Software Inc., San Diego, CA, USA). The IC50 values were determined by nonlinear regression analysis using the equation log (inhibitor) versus response—variable slope settings. Statistical analyses were performed using GraphPad Prism 6. As detailed in the figure legends, either Student's t‐test or two‐way ANOVA was applied, as appropriate.

In data set [2] the test system is dogs with homozygous MDR1 gene mutation. The following applies: cited from earlier work.
For data set [3], the target named is dog MDR1 wt (canine MDR1 carrier) (Canis lupus familiaris, UniProt Q4PLA8). In words: Rh123 efflux inhibition (IC50) in stably transfected MDR1-HEK293 cells, dog MDR1 wt. The following applies: for IC50: IC50, inhibition of Rh123 efflux, dog MDR1 wt, 5 μM Rh123, HEK293 after tetracycline treatment, one value per independent experiment (two experiments). The method, then: as §1, §2
dog MDR1 wt (canine MDR1 carrier), sequence (Q4PLA8 entry or part of it): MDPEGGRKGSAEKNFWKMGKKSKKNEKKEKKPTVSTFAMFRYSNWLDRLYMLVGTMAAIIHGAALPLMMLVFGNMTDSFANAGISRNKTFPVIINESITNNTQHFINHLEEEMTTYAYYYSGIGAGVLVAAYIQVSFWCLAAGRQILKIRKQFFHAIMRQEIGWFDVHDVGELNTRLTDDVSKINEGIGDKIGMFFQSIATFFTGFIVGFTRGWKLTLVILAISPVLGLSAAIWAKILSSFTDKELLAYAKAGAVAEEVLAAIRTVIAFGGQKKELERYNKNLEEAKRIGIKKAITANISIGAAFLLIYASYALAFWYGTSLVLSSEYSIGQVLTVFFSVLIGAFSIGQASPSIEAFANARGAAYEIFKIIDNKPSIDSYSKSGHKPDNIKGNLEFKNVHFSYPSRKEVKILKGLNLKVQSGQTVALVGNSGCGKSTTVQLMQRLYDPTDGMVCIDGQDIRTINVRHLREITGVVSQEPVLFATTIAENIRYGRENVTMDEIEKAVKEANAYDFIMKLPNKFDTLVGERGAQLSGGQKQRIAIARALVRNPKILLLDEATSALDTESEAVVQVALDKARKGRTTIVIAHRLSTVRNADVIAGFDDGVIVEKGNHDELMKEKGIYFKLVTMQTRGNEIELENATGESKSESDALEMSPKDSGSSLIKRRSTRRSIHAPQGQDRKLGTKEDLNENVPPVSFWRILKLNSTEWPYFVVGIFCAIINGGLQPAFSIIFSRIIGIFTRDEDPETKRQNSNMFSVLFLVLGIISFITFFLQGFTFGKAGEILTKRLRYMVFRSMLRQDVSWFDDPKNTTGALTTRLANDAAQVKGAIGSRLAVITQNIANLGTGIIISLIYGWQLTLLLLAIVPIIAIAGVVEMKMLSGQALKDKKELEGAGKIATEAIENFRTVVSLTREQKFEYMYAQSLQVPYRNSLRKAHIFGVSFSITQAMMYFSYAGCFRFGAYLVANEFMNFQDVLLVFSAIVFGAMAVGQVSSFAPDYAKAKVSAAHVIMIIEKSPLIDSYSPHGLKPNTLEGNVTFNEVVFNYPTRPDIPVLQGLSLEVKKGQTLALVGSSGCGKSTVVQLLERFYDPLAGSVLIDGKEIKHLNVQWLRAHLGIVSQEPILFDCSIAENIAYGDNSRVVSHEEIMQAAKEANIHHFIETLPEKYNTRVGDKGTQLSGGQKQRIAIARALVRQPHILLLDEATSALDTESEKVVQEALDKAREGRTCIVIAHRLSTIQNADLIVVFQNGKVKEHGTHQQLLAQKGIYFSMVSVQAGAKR

A further data set has as its system cat MDR1 wt. In words: Rh123 transport experiment in HEK293 cells with/without tariquidar, cat MDR1 wt. The following applies: 1 μM TQD, 5 μM Rh123, HEK293.
The target of data set [4] is cat MDR1 wt (feline MDR1 carrier) (Felis catus, UniProt D2KKF0). Nature of the data set: Rh123 efflux inhibition (IC50) in stably transfected MDR1-HEK293 cells, cat MDR1 wt. The following applies: IC50, inhibition of Rh123 efflux, 5 μM Rh123, HEK293 after tetracycline treatment, one value per independent experiment (two experiments). The method, then: as §1, §2
cat MDR1 wt (feline MDR1 carrier), sequence (D2KKF0 entry or part of it): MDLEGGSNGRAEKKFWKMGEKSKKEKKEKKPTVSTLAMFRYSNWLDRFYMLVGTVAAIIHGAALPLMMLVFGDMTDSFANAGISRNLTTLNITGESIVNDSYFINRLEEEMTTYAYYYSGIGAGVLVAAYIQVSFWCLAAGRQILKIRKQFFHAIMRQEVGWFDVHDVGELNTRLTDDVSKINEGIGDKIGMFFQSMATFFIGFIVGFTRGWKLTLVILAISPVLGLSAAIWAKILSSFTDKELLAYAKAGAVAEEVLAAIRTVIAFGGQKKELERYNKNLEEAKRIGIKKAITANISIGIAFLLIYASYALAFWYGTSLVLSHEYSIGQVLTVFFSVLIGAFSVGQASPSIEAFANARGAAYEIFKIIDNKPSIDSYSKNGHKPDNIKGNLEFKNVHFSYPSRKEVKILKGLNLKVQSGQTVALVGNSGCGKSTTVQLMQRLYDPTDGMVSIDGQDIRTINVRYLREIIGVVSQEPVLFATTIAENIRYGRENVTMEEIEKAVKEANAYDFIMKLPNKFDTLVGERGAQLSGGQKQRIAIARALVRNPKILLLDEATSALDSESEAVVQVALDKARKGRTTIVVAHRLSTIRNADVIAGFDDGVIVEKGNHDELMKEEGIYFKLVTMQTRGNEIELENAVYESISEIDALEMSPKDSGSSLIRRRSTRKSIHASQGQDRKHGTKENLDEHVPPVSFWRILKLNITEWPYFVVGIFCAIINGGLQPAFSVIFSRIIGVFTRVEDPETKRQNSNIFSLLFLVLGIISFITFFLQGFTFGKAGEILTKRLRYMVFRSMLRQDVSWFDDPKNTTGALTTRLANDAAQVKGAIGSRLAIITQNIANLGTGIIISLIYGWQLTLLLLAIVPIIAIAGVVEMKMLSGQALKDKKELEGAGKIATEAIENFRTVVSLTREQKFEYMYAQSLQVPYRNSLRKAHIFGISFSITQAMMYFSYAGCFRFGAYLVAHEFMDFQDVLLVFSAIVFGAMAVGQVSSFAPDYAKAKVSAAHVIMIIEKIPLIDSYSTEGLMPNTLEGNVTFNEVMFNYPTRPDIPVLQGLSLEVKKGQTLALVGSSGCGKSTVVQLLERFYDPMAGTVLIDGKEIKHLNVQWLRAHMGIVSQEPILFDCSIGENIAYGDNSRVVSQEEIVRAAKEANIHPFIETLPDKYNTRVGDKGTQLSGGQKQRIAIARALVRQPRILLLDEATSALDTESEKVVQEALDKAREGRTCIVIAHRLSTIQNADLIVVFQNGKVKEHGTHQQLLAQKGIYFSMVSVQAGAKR
For data set [5], the system named is MDR1 carrier (parent MDCKII, dog MDR1 wt and cat MDR1 wt MDCKII^MDR1ko cells). Nature of the data set: Transwell transport experiments in MDCKII cells with Rh123 and [3H]digoxin. Particulars: 1 μM TQD. It counts as cell-based. The method, then: For transwell transport experiments in the MDCKII cell lines, 3 × 10^5 cells were seeded per 12‐mm/0.4 μm transwell membrane inserts (Sarstedt, Numbrecht, Germany). One day after seeding, the medium was changed. The transport experiments were performed 72 h after seeding and after reaching 100% confluence. Measurement of the transepithelial electrical resistance (TEER) was conducted on each well with the Millicell ERS‐2 electrical resistance system (Millipore) to confirm the integrity of the monolayer. Only cell monolayers that reached > 150 Ω cm^2 were used for the transport experiments. […] Fluorescence of Rh123 was detected with the GloMax plate reader. […] The amount of [^3H]digoxin in the samples was quantified by Tri‐Carb 2910TR Liquid Scintillation Analyzer (Perkin Elmer).
For all transwell experiments with Rh123 and [^3H]digoxin as the substrates, apparent permeability coefficients (P app, cm/s) and the efflux ratios (ER) were calculated as follows: Papp=V/A×C0×dQ/dt where “V” is the volume of the receiver chamber (1.5 or 0.5 mL), “A” is the surface area of the transwell inserts (being 1.1 cm^2), “C 0” is the initial concentration of the compound, and “dQ/dt” is the transport rate.
From the P app values of the AB and BA transport experiments, the ER was calculated as follows: [drawing 1]

For data set [6], the system named is wild-type MDR1 (P-glycoprotein) of dog and cat. In words: Rh123 efflux inhibition in MDR1-HEK293 cells, stated for both wild-type MDR1 carriers together. The following applies: dog and cat, IC50 range, inhibition of both wild-type MDR1 carriers (dog and cat), 5 μM Rh123, HEK293, range over both species and experiments. The method, then:
as §1, §2

Another data set has as its system dog MDR1 wt. In words: Rh123 transport experiment in HEK293 cells with/without tariquidar, dog MDR1 wt. It counts as cell-based. The following applies: 1 μM TQD, 5 μM Rh123, HEK293.
For the next data set, the system named is MDR1 carrier. On the set-up: method as in Lespine et al. [2007]. Particulars: membrane vesicles from DC-3F-/ADX MDR1-overexpressing cells; ref Lespine et al. [2007]; read-out: Ki, ATPase activity of the MDR1 carrier stimulated by verapamil; cited from earlier work.
Where [7] appears, read: stably transfected MDR1-HEK293 cells (tetracycline-induced), probe rhodamine 123 (Rh123), 5 μM.

Turning to `O=C(CNC(=O)c1ccc(C2=NO[C@](c3cc(Cl)cc(C(F)(F)F)c3)(C(F)(F)F)C2)c2ccccc12)NCC(F)(F)F` [afoxolaner], in data set [1], the “Interaction with / inhibition of the MDR1 carriers from either species” value is “no detectable interaction; also recorded: no inhibition”. Further, in data set [2] (dogs with homozygous MDR1 gene mutation, monotherapy or in combination with milbemycin oxime, ref Drag et al. [2022]), the “Safety of oral administration” value was “safe”.
One may read the IC50 as the concentration needed to halve the response being measured. As for `COc1cc2c(cc1OC)CN(CCc1ccc(NC(=O)c3cc(OC)c(OC)cc3NC(=O)c3cnc4ccccc4c3)cc1)CC2` [tariquidar], the IC50 was 0.06 µM and 0.12 µM in [3]; 0.14 µM and 0.23 µM in data set [4]. In addition, the “Effect on Rh123 efflux activity of wild-type feline MDR1” value in the data set with cat MDR1 wt was “TQD‐sensitive reduction in Rh123 accumulation”. In addition, the “Effect on transcellular transport of [3H]digoxin” value in data set [5] (1 μM [3H]digoxin, dog MDR1 wt and cat MDR1 wt cell lines) is “completely abolished”. In data set [5] (5 μM Rh123, dog MDR1 wt and cat MDR1 wt cell lines), the “Effect on transcellular transport of Rh123” value is recorded as “completely abolished”. In data set [6] (setting [7]), this compound registered an IC50 at 60 min of 0.1 to 0.2 µM. In the data set with dog MDR1 wt, the “Effect on Rh123 efflux activity of wild-type canine MDR1” value is “fully abolished”.
In the case of `C/C=C/C[C@@H](C)C(=O)[C@H]1C(=O)N[C@@H](C(C)C)C(=O)N(C)CC(=O)N(C)[C@@H](CC(C)C)C(=O)N[C@@H](C(C)C)C(=O)N(C)[C@@H](CC(C)C)C(=O)N[C@@H](C)C(=O)N[C@H](C)C(=O)N(C)[C@@H](CC(C)C)C(=O)N(C)[C@@H](CC(C)C)C(=O)N(C)[C@@H](C(C)C)C(=O)N1C` [PSC833, valspodar], the IC50 in data set [3] is 0.66 µM and 0.95 µM; in data set [4], 1.5 µM. Besides, in data set [6], the IC50 at 60 min lay within 1 to 2 µM.
Turning to `CO[C@H]1C[C@H](O[C@H]2[C@H](C)O[C@@H](O[C@@H]3/C(C)=C/C[C@@H]4C[C@@H](C[C@]5(C=C[C@H](C)[C@@H](C6CCCCC6)O5)O4)OC(=O)[C@@H]4C=C(C)[C@@H](O)[C@H]5OC/C(=C\C=C\[C@@H]3C)[C@]54O)C[C@@H]2OC)O[C@@H](C)[C@@H]1O` [doramectin], in data set [2] (dogs with homozygous MDR1 mutation, 0.6 mg/kg subcutaneous injection, ref Mealey et al. [2001], Hopper et al. [2008], Geyer and Janko [2012]), the “Outcome of off-label treatment” value is “fatal cases of neurological toxicity”.
For `Cc1cc(C2=NO[C@@](c3cc(Cl)c(Cl)c(Cl)c3)(C(F)(F)F)C2)sc1C(=O)NCC(=O)NCC(F)(F)F` [lotilaner], the IC50 was 23.2 µM and 10.9 µM in data set [3]; 17.5 µM and 10.9 µM in [4]. This compound also showed an IC50 at 60 min in data set [6] (setting [7]) of 11 to 23 µM.
Consider `Cc1cc(C2=NO[C@](c3cc(Cl)cc(Cl)c3)(C(F)(F)F)C2)ccc1C(=O)NCC(=O)NCC(F)(F)F` [fluralaner], for which, in data set [3] (up to the maximum tested concentration of 100 μM), the “Inhibition of the canine MDR1 carrier” value is reported as “did not inhibit”. In addition, the IC50 in [4] is 69.9 µM and > 100 µM. Moreover, the “Safety of oral administration” value in data set [2] (Collies with homozygous MDR1 gene mutation, ref Walther et al. [2014]) is reported as “treatment safety without neurological toxicity”.
As a reminder, the Ki is a measure of affinity in units of concentration, obtained from inhibition or displacement. For `CO[C@H]1C[C@H](O[C@@H]2/C(C)=C/C[C@@H]3C[C@@H](C[C@]4(CC[C@H](C)[C@@H](C5CCCCC5)O4)O3)OC(=O)[C@@H]3C=C(C)/C(=N/O)[C@H]4OC/C(=C\C=C\[C@@H]2C)[C@]43O)O[C@@H](C)[C@@H]1O` [selamectin], the IC50 is 21.5 µM and 15.7 µM in data set [3]; 14.3 µM and 10.3 µM in data set [4]. The IC50 at 60 min in [6] was in the range of 10 to 22 µM. Further, the Ki with MDR1 carrier is 1 µM. Also, the “Oral dose remaining without clinical symptoms of neurological toxicity” value in data set [2] (ivermectin-sensitive Collies, oral, ref Geyer and Janko [2012]) is listed as “exceeding 15 mg/kg”.
As to `CS(=O)(=O)CC(=O)N1CC2(C1)OCc1cc(C3=NO[C@@](c4cc(Cl)c(F)c(Cl)c4)(C(F)(F)F)C3)ccc12` [sarolaner], the IC50 in [3] was 41.6 µM and 30 µM; in [4], 56.5 µM and 35.1 µM. In data set [6], this compound yielded an IC50 at 60 min of 30 to 57 µM.
Take `CO/N=C1\C[C@]2(C[C@@H]3C[C@@H](C/C=C(\C)C[C@@H](C)/C=C/C=C4\CO[C@@H]5[C@H](O)C(C)=C[C@@H](C(=O)O3)[C@]45O)O2)O[C@H](/C(C)=C/C(C)C)[C@H]1C` [moxidectin]: the IC50 in [3] was 21.2 µM and 15.2 µM; in [4], 9.2 µM and 8.4 µM. The compound also registered an IC50 at 60 min in data set [6] (setting [7]) of 8 to 21 µM.
